# Results taken from patent publication US20220332876A1, “HYDROPHILIC-HYDROPHOBIC COPOLYMER CARRYING SHORT CHAIN FATTY ACID ESTER” (UNIVERSITY OF TSUKUBA, priority 2019, published 2022).
# Key:
# [1] = Pharmacokinetic study (2): phenylbutyric acid monomer in plasma and liver by LC/MS; type: in vivo, ICR mice; conditions: 200 mg/kg (1.22 mmol-4PBA/kg); blood and liver
# Experimental: Forty-five (45) 7-week-old ICR mice (male) were randomly divided into the following three groups. Doses for the administration groups 2GP and 3GP were determined so that the amount of phenylbutyric acid contained therein reached 200 mg/kg (1.22 mmol-4PBA/kg). After each sample is administered nearly simultaneously to all the mice, 1 mL of blood is taken by cardiac puncture, according to each endpoint (7 endpoints of 30 min, 1 h, 2 h, 4 h, 12 h, 16 h, 24 h), to separate plasma. The target organ, liver, was also taken out from each of the mice, and content of the phenyl butyric acid monomer was quantified by high performance liquid chromatography/mass spectrometry (LC/MS). The measurement results are illustrated in FIG. 43. In these figures, PBA was totally metabolized within 4 hours, whereas 4-Ph-BNP persistently released the phenylbutyric acid monomer in the blood and in the liver, and the release was not terminated even after 24 hours.
# 1GP: Saline (control, 3 mice) 2GP: 4-Phenylbutyric acid (7 endpoints (30 min, 1 h, 2 h, 4 h, 12 h, 16 h, and 24 h)×3 mice) 3GP: Ph-BNP (7 endpoints (30 min, 1 h, 2 h, 4 h, 12 h, 16 h, and 24 h)×3 mice)
# [2] = system: melanoma B16F10 cells; assay: Effect 2 as radiation enhancer (melanoma xenograft model); type: in vivo, C57BL/6J mice; conditions: for tumor weight / tumor size at the end of the test: Day 6 after irradiation
# Experimental: (§1) Five or seven 5 to 7-week-old C57BL/6J mice per group obtained similarly as in the above test were bred under similar conditions. 0.076×10^6 melanoma B16F10 cells per 100 μL (serum free DMEM) were injected subcutaneously into the outer side of the right thigh of each of the mice (Day 9 before irradiation). When the cancer volume reached from 350 to 560 mm^3, the mice were randomly divided into the following administration groups. The irradiation conditions were set to 10 Gy, 150 kV, 20 mA, Al+Cu (0.5 mm+0.1 mm) filtration, and 330 mm intervals.
# The cancer volume was calculated in the same manner as described above.
# GP4: Butyric acid (i.p.; 250 mg/kg) (6 hours before irradiation)+IR group (n=7)
# GP5: Butyric acid (i.p.; 500 mg/kg) (24 hours before irradiation)+IR group (n=7)
# GP6: BNP (i.p.: 500 mg/kg) (6 hours before irradiation)+IR group (n=7)
# GP7: BNP (i.p.: 500 mg/kg) (12 hours before irradiation)+IR group (n=7)
# (1) The data on cancer proliferation profiles by 5 Gy irradiation after butyric acid and NP administration in a melanoma xenograft model is illustrated in FIG. 33.
# (2) The data on the cancer weight at the end of the test (Day 6 after irradiation) is illustrated in FIG. 32 as mean±SEM values (n=from 2 to 7). The t-test is the same as in Test 8 (5).
# [3] = mouse, in vivo
# Experimental: (§2) Seven 7 to 8-week-old C57BL/6J mice (male) per group were obtained from Charles River Japan, Inc (Yokohama). These mice were bred while being freely fed with a standard solid feed at controlled temperature (23±1° C.) and humidity (50±5%) in a controlled temperature (23±1° C.) and humidity (50±5%) under non-pathogenic conditions in 12 hours dark/light cycles. The mice were randomly divided into the following administration groups of GP1 to GP6, and allowed to freely drink each sample described until Day 36. One day later, a glucose resistance test was performed. In the test, the body weight and sample consumption for each mouse were monitored every day. The sample was then replaced with drinking water until the end of the test (Day 40).
# These organs were stored in a 10% neutral buffer for further histological analysis. The Student's t-test is the same as described above.
# (§3) The organs of the mice taken out after dissection were fixed by immediately putting them in a 10% neutral formalin solution and immersing them therein for 1 day. Thereafter, the solution was replaced with a 70% ethanol solution for paraffin embedding. All the organs after the paraffin embedding were processed into tissue sections with a thickness of 5 μm, which were hematoxylin/eosin (HE) stained by a routine method. The tissue sections were dehydrated with high-concentration alcohol and washed with xylene, followed by microscope examination (biorevo, BZ-9000, Keyence). A villus length was measured by ImageJ software (NIH). […] The t-test is the same as described above.
# [4] = Antidiabetic test (glucose resistance test, pancreatic histology); type: in vivo, C57BL/6J mice; conditions: for size of the islets of Langerhans: H & E stained pancreatic tissue; for glucose concentration in glucose resistance test: glucose 2 g/kg orally, [glucose]60 min−[glucose]0 min, compared with the diabetic model mice
# Experimental: as §2
# (2) The glucose resistance test was performed to evaluate the therapeutic effects of short chain fatty acids in controlling the metabolism of the administered glucose. Sixteen (16) hours after overnight constraint, glucose (2 g/kg) was orally administered to the mice. One hour before and after the glucose administration, 10 μL of blood was collected from the tail vein, and mixed with heparin-containing (50 units/mL) saline in a volume (v:v) ratio of 1:1. A glucose concentration in the diluted blood was measured by FUJI DRY-CHEM 7000V (FUJIFILM Corporation). A final blood glucose concentration was calculated by the following equation:
# Final glucose concentration (mg/mL)=[glucose]60 min−[glucose]0 min
# as §3, with “In accordance with a routine method, all” for “All”, “alcohol,” for “alcohol and”, “then fixed, and subjected to” for “followed by”, “region of the islets of Langerhans” for “villus length”, “determined” for “measured”, “(NIH). The results are illustrated in FIG. 30.” for “(NIH).”
# [5] = Body weight in radiation enhancer Test Example 10; type: in vivo, C57BL/6J mice
# Experimental: as §1, with “When the cancer volume reached from 350 to 560 mm^3, the mice were randomly divided into the following administration groups.” left out
# (3) The data on body weight changes in the mice as mean SD values (n=7) are illustrated in FIG. 35. The t-test is the same as described above.
Compound,time until totally metabolized [1],tumor proliferation suppressive effect (order of groups) ([2]; i.p. 6 hours before 5 Gy irradiation),tumor weight / tumor size at the end of the test ([2]; i.p. 6 hours before irradiation),tumor proliferation suppressive effect (order of groups) ([2]; i.p. 24 hours before 5 Gy irradiation),tumor weight / tumor size at the end of the test ([2]; i.p. 24 hours before irradiation),"villus length in the duodenum, jejunum, ileum, and large intestine [3]",size of the islets of Langerhans [4],glucose concentration in glucose resistance test [4],body weight change / toxicity ([5]; i.p. before irradiation),"body weight change / toxicity ([5]; mouse, in vivo, ip)"
O=C(O)CCCc1ccccc1 [4-phenylbutyric acid],≤ 4 h,–,–,–,–,–,–,–,–,–
CCCC(=O)O [butyric acid],–,irradiation group <butyric acid (6 hours before) administration group,significantly reduced,BNP (6 hours before) administration group=butyric acid (24 hours before) administration group,significantly reduced,same trend,reduced,no significant differences,body weight decrease is found,–
CCC(=O)O [propionic acid],–,–,–,–,–,same trend,reduced,no significant differences,–,–
CH3O—(CH2CH2O)m—CH2PhCH2[CH2CH(OC(═O)CH2CH2CH3)]nS(═S)OCH2CH3 [N721],–,–,–,–,–,did not have a shortened villus length or damage to the digestive tract,–,–,–,does not have a body weight decrease
